Laboratory results published in article PMC10495264 (Nature Cell Biology, 2023).
Values joined by “and” are separate entries in the source; they are usually repeats but may differ in a detail not shown here. Equal values may be shown once.

Tests used:
AMPK = AMPK and ACC1 phosphorylation immunoblot; format: cell-based, human; details: relative to DMSO
Description: (§1) For standard SDS–PAGE and immunoblotting experiments, cells from a well of a 12-well plate were lysed in 250 μl of ice-cold Triton lysis buffer (50 mM Tris pH 7.5, 1% Triton X-100, 150 mM NaCl, 50 mM NaF, 2 mM Na-vanadate and 0.011 g ml^−1 β-glycerophosphate) supplemented with 1×PhosSTOP phosphatase inhibitors (cat. no. 4906837001, Roche) and 1×cOmplete protease inhibitors (cat. no. 11836153001, Roche) for 10 min on ice. The samples were clarified by centrifugation (20,000g, 15 min, 4 °C) and the supernatants were boiled in 1×SDS sample buffer (5×SDS sample buffer: 350 mM Tris–HCl pH 6.8, 30% glycerol, 600 mM DTT, 12.8% SDS and 0.12% bromophenol blue). The band intensities were quantified using the ImageJ software.
(§2) Data in graphs are shown as the mean ± s.e.m. *P < 0.05, **P < 0.005. Source numerical data and unprocessed blots are provided. Source data

mTORC2 = mTORC2 activity in HEK293FT cells, p-AKT^S473/AKT immunoblot; format: cell-based, human
Description: Phosphorylation of Ypk1 was used as the TORC2 readout. Phosphorylation of Snf1 was used as the AMPK activation readout. Total Snf1 was detected with an antibody to a histidine (His) stretch in Snf1. […] Source numerical data and unprocessed blots are provided. Source data
(§3) Amino-acid-starvation experiments were carried out as described before[42],[43]. […] For the lipid depletion experiments, cells were cultured in medium containing 10% charcoal-stripped FBS (A3382101, Thermo Fisher Scientific), instead of full FBS, for 24 h before treatments with FASN inhibitors were performed. For FA supplementation, each FA was first conjugated to 10% FA-free BSA (fraction V; cat. no. 10735086001, Roche) for 1 h at 50 °C in a 50:50 volumetric ratio. The BSA-conjugated C16:0, C16:1, C18:1 and C18:2 FAs (100 μM) were then added to the media both 16 h previous to and at the start of the treatment with FASN inhibitors.
as §1

mTORC1 [1] = test: mTORC1 activity in HEK293T cells (WT, AMPKα1/2 KO, DEPDC5 and RagA/B triple KO), p-S6K^T389/S6K immunoblot; format: cell-based, human
Description: Source numerical data and unprocessed blots are provided. Source data
as §1
Data in graphs are shown as the mean ± s.e.m. *P < 0.05, **P < 0.005, ***P < 0.0005. Source numerical data and unprocessed blots are provided. Source data

mTORC1 [2] = test: mTORC1 activity in HEK293FT cells (WT and knockout lines), phosphorylation of S6K, 4E-BP1, Grb10, TFEB by immunoblot; format: cell-based, human
Description: Data represent the median fluorescence intensity of OPP Alexa Fluor 488; n = 6 biological replicates from two independent experiments. b,c,e,g,i,k,l, Data are the mean ± s.e.m. *P < 0.05, **P < 0.005, ***P < 0.0005. […] Source numerical data and unprocessed blots are provided. Source data
as §3, §1

[3] = test system: mTOR lysosomal localization; test: Co-localization of mTOR with LAMP2, confocal microscopy; format: cell-based, human; details: for mTOR/LAMP2 colocalization (Manders' coefficient), Mean: mean of pooled individual cells (ED Fig. 8d), DMSO mean 0.383214
ERK1/2 = ERK1/2 phosphorylation immunoblot; format: cell-based, human; details: ED Fig. 5m; relative to DMSO
Description: as §1, §2

mTORC1 [4] = biological target: T1, mTORC1 (Homo sapiens, UniProt P42345); test: mTORC1 complex stability/composition, mTOR co-immunoprecipitation of Raptor and mLST8; details: cells treated with cerulenin (4 h)
T1 construct: endogenous mTORC1 complexes were purified from HEK293FT cells; endogenous in cells; host or cells: HEK293FT (immunoprecipitation of endogenous mTOR); the 4E-BP1 substrate was made in E. coli BL21 RP
Description: For the mammalian endogenous protein co-immunoprecipitation experiments, cells of a near-confluent 10-cm dish were lysed in CHAPS IP buffer (50 mM Tris pH 7.5, 0.3% CHAPS detergent, 150 mM NaCl, 50 mM NaF, 2 mM Na-vanadate and 0.011 g ml^−1 β-glycerophosphate) supplemented with 1×PhosSTOP phosphatase inhibitors and 1×EDTA-free cOmplete protease inhibitors (11873580001, Roche) for 10 min on ice. The samples were clarified by centrifugation (20,000g, 15 min, 4 °C) and the supernatants were subjected to immunoprecipitation by the addition of 3 μl of each antibody, incubation at 4 °C with rotation for 3 h, followed by incubation (4 °C with rotation) with 30 μl of a pre-washed Protein A agarose bead slurry (cat. no. 11134515001, Roche) for an additional hour. The beads were then washed four times with CHAPS IP wash buffer (50 mM Tris pH 7.5, 0.3% CHAPS detergent, 150 mM NaCl and 50 mM NaF) and boiled in 1×SDS loading buffer. A portion of the samples was kept aside as the input before the addition of antibodies. The samples were analysed by SDS–PAGE and the presence of co-immunoprecipitated proteins was detected by immunoblotting with the appropriate specific antibodies.
To test whether Mal-CoA influences mTORC1 complex stability/composition, 1 mM Mal-CoA lithium salt solution was added to the lysates before the immunoprecipitation of mTOR, as described earlier. […]

mTORC1 [5] = test: mTORC1 activity in U2OS cells, immunoblot; format: cell-based, human; details: Fasnall 25 μM 30 min; cerulenin 50 μM 2 or 4 h
mTORC1 [6] = test: mTORC1 activity in mouse embryonic fibroblasts (MEFs), p-S6K^T389/S6K immunoblot; format: cell-based; details: for p-S6K(T389)/S6K, Mean: ED Fig. 4e, relative to DMSO
[7] = Fasnall 25 μM 30 min, cerulenin 50 μM 4 h

C/C=C/C/C=C/CCC(=O)[C@H]1O[C@H]1C(N)=O [cerulenin]
p-AMPK(T172)/AMPK, Mean (AMPK; ED Fig. 5e): 0.8121
p-ACC1(S79)/ACC1, Mean (AMPK; ED Fig. 5f): 1.111
phosphorylation of Akt (mTORC2 substrate) (mTORC2; [7]): did not significantly alter
p-AKT(S473)/AKT, Mean (mTORC2; cerulenin 50 μM, 4 h, DMSO = 1, n = 3, Fig. 3d): 0.8351
p-S6K(T389)/S6K, Mean (mTORC1 [1]; ED Fig. 7c, AMPKa1/2 KO, 2h, relative to AMPKa1/2 KO DMSO): 0.7893
p-S6K(T389)/S6K, Mean (mTORC1 [1]; ED Fig. 7c, AMPKa1/2 KO, 4h, relative to AMPKa1/2 KO DMSO): 0.6235
p-S6K(T389)/S6K, Mean (mTORC1 [1]; ED Fig. 7c, WT, 2h, relative to WT DMSO): 0.7439
p-S6K(T389)/S6K, Mean (mTORC1 [1]; ED Fig. 7c, WT, 4h, relative to WT DMSO): 0.528
p-S6K(T389)/S6K, Mean (mTORC1 [1]; ED Fig. 7h, DEPDC5+RagA/B KO, 2h, relative to DEPDC5+RagA/B KO DMSO): 0.6252
p-S6K(T389)/S6K, Mean (mTORC1 [1]; ED Fig. 7h, DEPDC5+RagA/B KO, 4h, relative to DEPDC5+RagA/B KO DMSO): 0.4969
p-S6K(T389)/S6K, Mean (mTORC1 [1]; ED Fig. 7h, WT, 2h, relative to WT DMSO): 0.7136
p-S6K(T389)/S6K, Mean (mTORC1 [1]; ED Fig. 7h, WT, 4h, relative to WT DMSO): 0.5404
p-Grb10(S476)/Grb10, Mean (mTORC1 [2]; ED Fig. 3e, relative to DMSO): 0.6323
p-TFEB(S211)/TFEB, Mean (mTORC1 [2]; ED Fig. 3f, relative to DMSO): 0.6501
p-4E-BP1(T37/46)/4E-BP1, Mean (mTORC1 [2]; ED Fig. 3g, relative to DMSO): 0.1632
p-S6K(T389)/S6K, Mean (mTORC1 [2]; ED Fig. 6b, relative to Luc): 0.5038
mTORC1 activity towards Grb10 and TFEB (cerulenin: also 4E-BP1) (mTORC1 [2]; [7]): downregulates
mTORC1 activity (phosphorylation of S6K, 4E-BP1, Grb10 and TFEB) (mTORC1 [2]; HEK293FT cells, Fasnall, cerulenin or siFASN): suppressed
p-S6K(T389)/S6K, Mean (mTORC1 [2]; HEK293FT, 50 μM cerulenin 2h, DMSO = 1, n = 8, Fig. 2i): 0.7401
p-S6K(T389)/S6K, Mean (mTORC1 [2]; HEK293FT, 50 μM cerulenin 4h, DMSO = 1, n = 8, Fig. 2i): 0.4346
p-S6K(T389)/S6K, Mean (mTORC1 [2]; TSC1 KO HEK293FT, cerulenin 50 μM, 4 h, respective DMSO = 1, n = 3, Fig. 5p): 0.4527
p-S6K(T389)/S6K, Mean (mTORC1 [2]; WT HEK293FT, cerulenin 50 μM, 4 h, respective DMSO = 1, n = 3, Fig. 5p): 0.3623
mTOR/LAMP2 colocalization (Manders' coefficient) ([3]; Ceru 2h, Replicate 1, individual cells (ED Fig. 8d)): 0.444 and 0.38 and 0.427 and 0.715 and 0.517 and 0.116 and 0.414 and 0.188 and 0.399 and 0.209 and 0.241 and 0.28 and 0.349 and 0.265 and 0.345 and 0.315 and 0.445 and 0.603 and 0.407 and 0.223 and 0.37 and 0.271 and 0.185
mTOR/LAMP2 colocalization (Manders' coefficient) ([3]; Ceru 2h, Replicate 3, individual cells (ED Fig. 8d)): 0.327 and 0.378 and 0.177 and 0.225 and 0.217 and 0.171 and 0.169 and 0.316 and 0.307 and 0.469 and 0.189 and 0.266 and 0.237 and 0.271 and 0.179 and 0.175 and 0.173 and 0.339
mTOR/LAMP2 colocalization (Manders' coefficient), Mean ([3]; Ceru 2h): 0.3276
mTOR/LAMP2 colocalization (Manders' coefficient) ([3]; Ceru 4h, Replicate 1, individual cells (ED Fig. 8d)): 0.295 and 0.311 and 0.327 and 0.333 and 0.217 and 0.408 and 0.17 and 0.428 and 0.395 and 0.227 and 0.135 and 0.322 and 0.371 and 0.272 and 0.219 and 0.26 and 0.303
mTOR/LAMP2 colocalization (Manders' coefficient) ([3]; Ceru 4h, Replicate 3, individual cells (ED Fig. 8d)): 0.327 and 0.378 and 0.177 and 0.225 and 0.217 and 0.171 and 0.169 and 0.316 and 0.307 and 0.469 and 0.189 and 0.266 and 0.237 and 0.271 and 0.179 and 0.175 and 0.173 and 0.339
mTOR/LAMP2 colocalization (Manders' coefficient), Mean ([3]; Ceru 4h): 0.2619
mTOR localization at lysosomes (co-localization with LAMP2) ([3]; HEK293FT, 25 μM Fasnall or 50 μM cerulenin): significant dissociation
p-ERK(T202/Y204)/ERK, Mean (ERK1/2): 1.697
stability and composition of mTORC1 (mTORC1 [4]): not affected
mTORC1 activity in U2OS (mTORC1 [5]): downregulates
p-S6K(T389)/S6K, Mean (mTORC1 [6]; 2h): 0.8743
p-S6K(T389)/S6K, Mean (mTORC1 [6]; 4h): 0.3448
mTORC1 activity in MEFs (mTORC1 [6]; Fasnall 25 μM 30 min, cerulenin 50 μM 2 or 4 h): downregulates
